Measured values from patent US20100041597A1, “PEPTIDES TARGETED TO PROTEIN KINASE C ISOFORMS AND USES THEREOF” (priority 2005, published 2010).

How the values were obtained:
[1] = In vitro toxicity test (fluorimetric DNA assay, Hoechst); assay type: cell-based, human; conditions: human, IMR-32 neuroblastoma cells, with pinocytic endocytosis reagent, read-out: % survival
Experimental: (§1) In vitro cytotoxicity testing of the peptides PRE 3, PRE 4 and PRE 5 (see Table 3) was conducted following the general protocol outlined below (modified from “Fluorimetric DNA assay for cell growth estimation” Rao J, Otto W., Analytical Biochem. 207:186-192, 1992).
(§2) The assay was performed in 96 well plates, with 3,000 IMR-32 neuroblastoma cells seeded per well and 8 replicas were performed per treatment. The cells were pre-treated with either plain medium and a pinocytic endocytosis reagent (Molecular Probes) or medium containing the PRE under evaluation and the pinocytic endocytosis reagent. The cells were allowed to grow under conventional conditions for 3 days. The DNA content of each well was assessed at 24, 48 and 72 hours using Hoechst reagent according to standard procedures. The fluorescence intensity per well was measured using the plate reader “CytoFluor 2350” from Millipore. Excitation was 360 nm and emission was 460 nm. The number of cells is directly correlated to the DNA content.
(§3) The results are shown in Tables 11-13 as the average relative fluorescence intensity measured for the 8 replica wells, as well as the percentage of survival as compared with matching untreated controls.

[2] = system: IMR-32 neuroblastoma cells; test: as above; assay type: cell-based, human; conditions: with pinocytic endocytosis reagent
Experimental: as §1, §2, §3

PKC-βII = test: Competitive binding assay using cell extracts (Western blot); design: species or system human; key: —: no detectable affinity; Low to very low affinity at 10X or 20X or both PRE concentrations in at least one cell line in the cell extract assay; Low affinity in purified isoform assay.; Moderate affinity at 10X or 20X or both PRE concentrations in at least one cell line in the cell extract assay.; High affinity at 10X or 20X or both PRE concentrations in at least one cell line in the cell extract assay; High affinity in purified isoform assay; conditions: Cell extract; PRE at 10X, 20X antibody concentration; Table 20
Experimental: (§4) Binding efficiency and specificity of the peptides PRE 2, 3, 4, 5, 6, 7, 8, 9, 10, 11, 12 and 13 (see Table 3) was also tested using cytoplasmic extracts from different cell lines expressing appropriate PKC isoforms as described for Example 1. Briefly, the protein cytoplasmic extracts were separated by electrophoresis and transferred onto nitrocellulose membranes by standard Western blotting procedures. The bands on the Western blots were detected with matching primary antibodies and alkaline phosphatase conjugated secondary antibody. The bands were then scanned and the relative density measurements obtained.
(§5) This procedure to assess the binding characteristics of the PREs is based on competition binding of the PRE with the primary anti-isoform PKC specific antibodies. The lower the measured band density, the greater the binding of the PRE to the PKC isoform. The PREs were added at 10 and 20 times (10×, 20×) the primary antibody concentration, according to classical competition between antigenic peptide and primary antibody. The following cell lines (obtained from the ATCC) were used: H661—NCI human lung carcinoma NSCLC; MDAMB231—human highly invasive breast cancer cell line from pleural effusion; LS180—human colon adenocarcinoma; LnCAP—human prostate adenocarcinoma; CCD16Lu—human lung fibroblasts; Du145—human prostate carcinoma brain metastasis, and T24—human bladder carcinoma.
(§6) In these cases, the 20× band density figures relative to control and 10× values were reliable.

PKC-ι = biological target: T1, PKC-ι (Homo sapiens, UniProt P41743); test: as above; conditions: Cell extract; PRE at 10X, 20X antibody concentration; Table 20
T1 construct: cytoplasmic extracts from different cell lines expressing appropriate PKC isoforms; endogenous in cells; host or cells: MDAMB231, LnCAP, H661, CCD16Lu, Du145, LS180 (human, from ATCC)
T1 sequence (P41743 1-596): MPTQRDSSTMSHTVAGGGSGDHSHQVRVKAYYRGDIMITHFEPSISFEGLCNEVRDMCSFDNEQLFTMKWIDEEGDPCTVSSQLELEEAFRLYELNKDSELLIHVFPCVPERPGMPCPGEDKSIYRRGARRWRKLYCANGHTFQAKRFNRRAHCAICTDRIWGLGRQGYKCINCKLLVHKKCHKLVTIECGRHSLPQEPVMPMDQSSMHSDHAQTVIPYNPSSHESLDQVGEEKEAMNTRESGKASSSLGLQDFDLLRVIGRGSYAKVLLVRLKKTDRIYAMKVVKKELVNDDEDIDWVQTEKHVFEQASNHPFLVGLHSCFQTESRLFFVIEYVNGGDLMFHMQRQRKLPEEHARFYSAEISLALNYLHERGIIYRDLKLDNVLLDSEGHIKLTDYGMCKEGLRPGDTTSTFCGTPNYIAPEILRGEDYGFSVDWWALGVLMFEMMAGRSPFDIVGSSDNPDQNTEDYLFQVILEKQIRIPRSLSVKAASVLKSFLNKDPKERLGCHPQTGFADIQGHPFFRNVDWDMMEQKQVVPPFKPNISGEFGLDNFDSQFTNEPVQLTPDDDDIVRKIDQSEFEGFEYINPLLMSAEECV
Experimental: as §4, §5, §6

PKC-βI = PKC-βI (Homo sapiens, UniProt P05771); test: as above; design: cytoplasmic extracts from different cell lines expressing appropriate PKC isoforms; endogenous in cells; host or cells: H661, MDAMB231, LS180, T24; key to Affinity for PKC isoform βI: —: no detectable affinity; Low to very low affinity at 10X or 20X or both PRE concentrations in at least one cell line in the cell extract assay; Low affinity in purified isoform assay.; Moderate affinity at 10X or 20X or both PRE concentrations in at least one cell line in the cell extract assay.; High affinity at 10X or 20X or both PRE concentrations in at least one cell line in the cell extract assay; High affinity in purified isoform assay
Sequence of PKC-βI (P05771 2-671): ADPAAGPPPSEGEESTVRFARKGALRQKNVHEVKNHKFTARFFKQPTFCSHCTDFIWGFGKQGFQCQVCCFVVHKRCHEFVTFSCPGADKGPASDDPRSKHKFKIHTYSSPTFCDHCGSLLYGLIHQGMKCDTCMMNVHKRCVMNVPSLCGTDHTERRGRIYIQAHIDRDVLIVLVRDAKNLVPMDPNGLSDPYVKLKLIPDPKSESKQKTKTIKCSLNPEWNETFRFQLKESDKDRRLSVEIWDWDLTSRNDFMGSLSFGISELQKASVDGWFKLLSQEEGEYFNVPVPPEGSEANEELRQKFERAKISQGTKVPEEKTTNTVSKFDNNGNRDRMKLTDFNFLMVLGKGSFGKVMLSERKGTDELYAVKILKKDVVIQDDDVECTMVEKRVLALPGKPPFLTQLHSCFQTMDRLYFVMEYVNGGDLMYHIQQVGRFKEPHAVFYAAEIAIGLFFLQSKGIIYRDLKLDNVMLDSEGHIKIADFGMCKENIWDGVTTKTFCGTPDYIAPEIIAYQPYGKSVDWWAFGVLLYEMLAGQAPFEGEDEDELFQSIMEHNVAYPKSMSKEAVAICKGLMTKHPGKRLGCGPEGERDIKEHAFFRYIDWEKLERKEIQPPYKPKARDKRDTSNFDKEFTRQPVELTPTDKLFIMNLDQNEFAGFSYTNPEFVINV
Experimental: as §4, §5, §6

Substance: Ac-KDAQNLIGISI-NH2 [PRE 4, Ac-KDAQNLIGISI-NH2]
- viability at 24 h, 2500 µg/mL ([1]; 2.5 mg/ml, 24 h): 106%
- viability at 48 h, 2500 µg/mL ([1]; 2.5 mg/ml, 48 h): 99%
- viability at 72 h, 2500 µg/mL ([1]; 2.5 mg/ml, 72 h): 110%
- viability at 24 h, 10000 µg/mL ([1]; 10 mg/ml, 24 h): 103%
- viability at 48 h, 10000 µg/mL ([1]; 10 mg/ml, 48 h): 101%
- viability at 72 h, 10000 µg/mL ([1]; 10 mg/ml, 72 h): 115%
- AFI (Average fluorescence intensity) ([2]; 2.5 mg/ml, 24 h): 179
- AFI (Average fluorescence intensity) ([2]; 2.5 mg/ml, 48 h): 240
- AFI (Average fluorescence intensity) ([2]; 2.5 mg/ml, 72 h): 777
- AFI (Average fluorescence intensity) ([2]; 10 mg/ml, 24 h): 173
- AFI (Average fluorescence intensity) ([2]; 10 mg/ml, 48 h): 247
- AFI (Average fluorescence intensity) ([2]; 10 mg/ml, 72 h): 809
- Affinity for PKC isoform βII (PKC-βII): L
- Affinity for PKC isoform ι (PKC-ι): M/L
- Affinity for PKC isoform βI (PKC-βI; Cell extract, PRE at 10X, 20X antibody concentration, Table 20): H
- affinity for PKC-βI (PKC-βI; cell extracts): good affinity for PKC-βI
